According to paper PMC9312238, “Novel Organoselenium Redox Modulators with Potential Anticancer, Antimicrobial, and Antioxidant Activities” (Antioxidants, 2022):
Values after ≈ are worked out from the molar mass of the structure shown. Read-outs that look alike come from different tables or passages of the source.

Key:
Format in all cases: cell-based
Staphylococcus aureus = assay: MIC by microdilution, S. aureus
Protocol: (§1) The antimicrobial activities of the OSe compounds were evaluated against C. albicans yeast, as well as E. coli and S. bacteria, employing the agar well diffusion assay. Furthermore, the MICs (in µM) were determined by the microdilution method according to the reported protocol. More details are in the Supporting Information. […]
(§2) 1.1.1. The antimicrobial activity
(§3) The antimicrobial activities of the OSe compounds were evaluated against C. albicans yeast as well as E. coli gram-negative and S. aureus gram-positive bacteria employing the agar well diffusion assay. Briefly, a concentration of 1 mM was prepared for each compound by dissolving in DMSO. Paper discs of standard size […] were steri-lized in an autoclave and soaked in 20 µL of the test compounds, and placed in the Petri dishes, which in turn contain a nutrient media (agar 20 g, peptone 5 g, and beef extract 3 g) seeded with the dedicated strain. Incubation lasted for 24 h at 36
(§4) Furthermore, the MICs (in µM) were determined by the microdilution method according to the reported protocol. […]
(§5) Inhibition%= (Ablank-Asample)/(Ablank)*100. (1)

Candida albicans = assay: MIC by microdilution, C. albicans; conditions: read-out: MIC (μM) C. albicans
Protocol: as §1, §2, §3, §4, §5

Escherichia coli = assay: MIC by microdilution, E. coli
Protocol: The antimicrobial activities of the OSe compounds were evaluated against C. albicans yeast, as well as E. coli and S. bacteria, employing the agar well diffusion assay. Furthermore, the MICs (in µM) were determined by the microdilution method according to the reported protocol. More details are in the Supporting Information.
1.1. The biological assays
1.1.1. The anticancer activity
The breast adenocarcinoma (MCF-7), Hepatocellular carcinoma (HEPG-2), and nor-mal fibroblast (WI-38) cells were obtained from ATCC via Holding company for biological products and vaccines (VACSERA), Cairo, Egypt. The reagents RPMI-1640 medium, MTT, DMSO, and fetal bovine serum was obtained from Sigma Aldrich. Dulbecco’s modified Eagle’s medium was used as the culture medium for the cells, and the cytotoxicity was evaluated using the reported MTT assay. […]
Cell lines were cultured in RPMI-1640 medium with 10% fetal bovine serum. […] The colorimetric assay is measured and recorded at an absorbance of 570 nm using a plate reader (EXL 800, USA). The percentage of the relative cell viability was calculated as (A570 of treated samples/A570 of the untreated sample) X 100. […]
The antimicrobial activities of the OSe compounds were evaluated against C. albicans yeast as well as E. coli gram-negative and S. aureus gram-positive bacteria employing the agar well diffusion assay. […]

Row | Compound | MIC (μM) S. aureus (Staphylococcus aureus; microdilution) | MIC (Candida albicans; microdilution) | MIC (μM) E. coli (Escherichia coli; microdilution) | MIC (Staphylococcus aureus; Staphylococcus aureus, read-out: MIC (μM) S. aureus) | MIC (Candida albicans; Candida albicans) | MIC (Escherichia coli; Escherichia coli, read-out: MIC (μM) E. coli)
1 | 2-((4-(2-(3-hydroxynaphthalen-1(4H)-ylidene)hydrazinyl)phenyl)selanyl)-N-phenylacetamide [Compound 9] | 1 µM | 2 µM | 0.5 µM | – | – | –
2 | Nc1ccc([Se]CC(=O)N[C@@H](Cc2c[nH]c3ccccc23)C(=O)O)cc1 [Compound 6, (2-((4-aminophenyl)selanyl)acetyl)tryptophan] | – | – | – | 2 µM (≈ 0.833 µg/mL) | 8 µM (≈ 3.33 µg/mL) | 1 µM (≈ 0.416 µg/mL)
